ChEMBL document CHEMBL3886260, “Amide or urea containing benzothiazole inhibitors of endothelial lipase” (2015)

What follows are compounds tested against T1, Endothelial lipase (Homo sapiens, UniProt Q9Y5X9) (assay: Biological Assay: Endothelial lipase activity was measured using a fluorescent substrate, A10070, (Invitrogen, CA) doped into an artificial vesicle containing DMPG (Avanti Polar Lipids) as the excipient. Vesicles were prepared by combining 285 uL, of 1 mM DMPG in a 1:1 mixture of MeOH and CHCl3 with 15 uL, of 1 mM A10070 in a 1:1 mixture of MeOH and CHCl3. The mixture was dried under nitrogen and resuspended in 150 uL, of 50 mM HEPES pH 8.0 buffer containing 100 mM NaCl and 0.2 mM EDTA. The sample was allowed to sit at rt for 15 min and then was sonicated 3x4 mins on ice with a Branson Sonicator using duty cycle 1. This preparation provides vesicles with a mole fraction of 0.05 for the FRET substrate.The enzymatic assay was measured using white, opaque 96-well half area plates. Each well contained 60 uL, of assay buffer (50 mM HEPES pH 8.0, 50 mM NaCl and 1 mM CaCl2) and 2 ul of a DMSO solution containing compound of interest. Conditioned media obtained from HT-1080 cells.).
T1 sequence (Q9Y5X9 whole entry): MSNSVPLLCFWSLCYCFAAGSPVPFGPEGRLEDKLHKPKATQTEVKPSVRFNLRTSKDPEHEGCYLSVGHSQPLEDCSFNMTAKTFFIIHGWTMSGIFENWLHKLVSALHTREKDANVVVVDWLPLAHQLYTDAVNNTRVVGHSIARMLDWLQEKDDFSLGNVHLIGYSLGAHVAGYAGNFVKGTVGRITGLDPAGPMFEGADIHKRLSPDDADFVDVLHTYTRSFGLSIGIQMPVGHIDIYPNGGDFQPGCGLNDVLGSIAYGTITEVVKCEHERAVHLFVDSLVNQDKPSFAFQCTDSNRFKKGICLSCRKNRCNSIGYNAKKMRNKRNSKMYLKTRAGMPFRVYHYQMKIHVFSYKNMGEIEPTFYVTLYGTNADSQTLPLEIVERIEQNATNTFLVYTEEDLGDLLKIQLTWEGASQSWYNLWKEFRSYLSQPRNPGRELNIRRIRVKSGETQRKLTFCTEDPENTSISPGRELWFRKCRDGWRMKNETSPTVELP
Assay type: cell-based
With `CC(C)(C)OC(=O)NC(c1nnc(CNS(N)(=O)=O)o1)c1nc2ccc(-c3ccccc3)cc2s1` (stereo not drawn) the IC50 was less than 0.01 µM. `O=C(NC(c1nnc(CS(=O)(=O)O)o1)c1nc2ccc(-c3ccccc3)cc2s1)c1ccc(C(F)(F)F)cc1` (stereo not drawn) showed an IC50 of less than 0.01 µM. `CC(=O)NC(c1nnc(C2CN(C(=O)OC(C)(C)C)C2)o1)c1nc2ccc(-c3ccccc3)cc2s1` (stereo not drawn) showed an IC50 of less than 0.01 µM.
